Reference: patent US20240245677A1, “SELECTED COMPOUNDS FOR TARGETED DEGRADATION OF BRD9” (C4 THERAPEUTICS, INC., priority 2021, published 2024)

What was measured:
[1] = Competitive equilibration experiment at 25° C.; assay type: physicochemical; conditions: 7 days
Experimental: Competitive equilibration experiments were conducted at 25° C. to investigate the thermodynamically stable anhydrate. 5 mg of Pattern G, and 5 mg of Pattern H, were added to about 200 μL of saturated solution in selected solvents. Obtained suspension was stirred at 25° C. for 7 days. Obtained suspensions were centrifuged and obtained solids were analyzed by XRPD immediately.

[2] = Equilibration with solvents at 25° C. for 2 weeks (XRPD); assay type: physicochemical
Experimental: (§1) Obtained suspension was filtered through a 0.45 μm nylon membrane filter by centrifugation at 14,000 rpm for 5 min. Solid parts (wet cakes) were investigated by XRPD immediately. Some samples with Form K were exposure to ambient condition and investigated by XRPD again.

[3] = Equilibration with solvents at 50° C. for 1 week (XRPD); assay type: physicochemical
Experimental: as §1, with “The obtained” for “Obtained”, “immediately. For samples with different XRPD results, additional analysis including HPLC, DSC, TGA, ^1H-NMR and KF was performed.” for “immediately.”

[4] = Approximate solubility in solvents at 25° C. and 50° C. (visual observation); assay type: physicochemical; conditions: for Solubility (mg/mL), 25° C.: target conc. = 250 mg/mL; for Solubility (mg/mL), 50° C.: target conc. = 500 mg/mL
Experimental: Max. volume of each solvent added was 1 mL. Approximate solubility was determined by visual observation.
Max volume of each solvent added was 1 mL. Approximate solubility was determined by visual observation.

[5] = Equilibration under a temperature cycle (XRPD); assay type: physicochemical
Experimental: as §1, with “immediately. For samples with different XRPD results, additional analysis including HPLC, DSC, TGA, ^1H-NMR and KF was performed.” for “immediately.”

[6] = Bulk stability study (1 week stress conditions; drying); conditions: for physical and chemical stability: 25° C./92% RH open vial, 40° C./75% RH open vial or 60° C. closed vial, 1 week
[7] = Compression and ball-milling experiments; assay type: physicochemical; conditions: for behavior under ball milling: ball milling for 5 min; for behavior under compression: 2 to 10 MPa
Experimental: Feasibility of formulation processes was evaluated with compression and ball-milling experiments. […] However, the hydrate Form N is sensitive to pressure.

[8] = Hygroscopicity by DVS at 25° C.; assay type: physicochemical; conditions: DVS 25° C.
Experimental: Hygroscopicity of Form A and Form N was investigated by DVS at 25° C. […] Form A converted to Form K after the DVS test. Form K is a metastable hydrate. It reverted back to Form A after exposure to ambient condition.
Hygroscopicity of the free base Pattern A* and the urea cocrystal Form P were evaluated by DVS at 25° C.

[9] = Variable humidity XRPD (VH-XRPD) experiments; assay type: physicochemical; conditions: listed as Pattern N
Experimental: Based on DVS results, variable humidity XRPD was conducted for Pattern A at different humidity conditions, including 40%, 70%, 90%, 70%, 40%, 20%, 0%, 40% RH conditions.
Based on DVS results, variable humidity XRPD was conducted for Pattern N, at different humidity conditions, including 40%, 70%, 90%, 70%, 40%, 20%, 0%, 40% RH conditions.

COc1cc(-c2cn(C)c(=O)c(C)c2C)cc(OC)c1CN1CC[C@H](N2CCN(c3ccc(N[C@H]4CCC(=O)NC4=O)cc3F)CC2)C(F)(F)C1 [Pattern G and Pattern H]
XRPD after competitive equilibration at 25° C. ([1]; Acetone): Pattern B
XRPD after competitive equilibration at 25° C. ([1]; Ethanol): Low crystallinity, difficult to differentiate
XRPD after competitive equilibration at 25° C. ([1]; Ethyl acetate): Pattern F
XRPD after competitive equilibration at 25° C. ([1]; Toluene): Pattern G

COc1cc(-c2cn(C)c(=O)c(C)c2C)cc(OC)c1CN1CC[C@H](N2CCN(c3ccc(N[C@H]4CCC(=O)NC4=O)cc3F)CC2)C(F)(F)C1 [Pattern E]
XRPD after equilibration at 25° C. for 2 weeks ([2]; 1,4-dioxane/heptane (v:v = 1:1)): +Pattern B
XRPD after equilibration at 25° C. for 2 weeks ([2]; 2-MeTHF): +Pattern B
XRPD after equilibration at 25° C. for 2 weeks ([2]; Acetone): +Pattern B
XRPD after equilibration at 25° C. for 2 weeks ([2]; Acetone/water (v:v = 36:64) a.w. = 0.90): +Pattern K
XRPD after equilibration at 25° C. for 2 weeks ([2]; Acetone/water (v:v = 76:24) a.w. = 0.70): +Pattern B
XRPD after equilibration at 25° C. for 2 weeks ([2]; Acetone/water (v:v = 92:8) a.w. = 0.50): +Pattern B
XRPD after equilibration at 25° C. for 2 weeks ([2]; Acetonitrile): +Pattern B
XRPD after equilibration at 25° C. for 2 weeks ([2]; DCM/heptane (v:v = 1:1)): +Pattern F
XRPD after equilibration at 25° C. for 2 weeks ([2]; DMSO/water (v:v = 23:77) a.w. = 0.91): +Pattern K
XRPD after equilibration at 25° C. for 2 weeks ([2]; Ethanol): +Pattern A
XRPD after equilibration at 25° C. for 2 weeks ([2]; Ethyl acetate): +Pattern F
XRPD after equilibration at 25° C. for 2 weeks ([2]; Methanol): +Pattern K
XRPD after equilibration at 25° C. for 2 weeks ([2]; THF/heptane (v:v = 1:1)): +Pattern B
XRPD after equilibration at 25° C. for 2 weeks ([2]; Toluene): +Pattern K
XRPD ([3]; equilibration at 50° C. for 1 week, 1,4-Dioxane/heptane (v:v = 1:1)): +Pattern B
XRPD ([3]; equilibration at 50° C. for 1 week, 2-MeTHF): +Pattern B
XRPD ([3]; equilibration at 50° C. for 1 week, Acetone): +Pattern B
XRPD ([3]; equilibration at 50° C. for 1 week, Acetone/water (v:v = 36:64) a.w. = 0.90): +Pattern K
XRPD ([3]; equilibration at 50° C. for 1 week, Acetone/water (v:v = 76:24) a.w. = 0.71): +Pattern B
XRPD ([3]; equilibration at 50° C. for 1 week, Acetone/water (v:v = 92:8) a.w. = 0.50): +Pattern B
XRPD ([3]; equilibration at 50° C. for 1 week, Acetonitrile): +Pattern F
XRPD ([3]; equilibration at 50° C. for 1 week, DMSO/water (v:v = 23:77) a.w. = 0.91): +Pattern K
XRPD ([3]; equilibration at 50° C. for 1 week, DMSO/water (v:v = 64:36) a.w. = 0.53): +Pattern B
XRPD ([3]; equilibration at 50° C. for 1 week, Ethanol): +Pattern F
XRPD ([3]; equilibration at 50° C. for 1 week, Ethyl acetate): +Pattern F
XRPD ([3]; equilibration at 50° C. for 1 week, THF/heptane (v:v = 1:1)): +Pattern B
XRPD ([3]; equilibration at 50° C. for 1 week, Toluene): +Pattern G
Solubility (mg/mL), 25° C. ([4]; 1,4-Dioxane): >250 mg/mL
Solubility (mg/mL), 50° C. ([4]; 1,4-Dioxane): >500 mg/mL
Solubility (mg/mL), 25° C. ([4]; 2-MeTHF): 83 to 125 mg/mL
Solubility (mg/mL), 50° C. ([4]; 2-MeTHF): 250 to 500 mg/mL
Solubility (mg/mL), 25° C. ([4]; Acetone): 20 to 25 mg/mL
Solubility (mg/mL), 50° C. ([4]; Acetone): 100 to 200 mg/mL
Solubility (mg/mL), 25° C. ([4]; Acetonitrile): 5 to 6 mg/mL
Solubility (mg/mL), 50° C. ([4]; Acetonitrile): <10 mg/mL
Solubility (mg/mL), 25° C. ([4]; DCM): 125 to 250 mg/mL
Solubility (mg/mL), 25° C. ([4]; DMSO): >250 mg/mL
Solubility (mg/mL), 50° C. ([4]; DMSO): >500 mg/mL
Solubility (mg/mL), 25° C. ([4]; Ethanol): 6 to 8 mg/mL
Solubility (mg/mL), 50° C. ([4]; Ethanol): 16 to 25 mg/mL
Solubility (mg/mL), 25° C. ([4]; Ethyl acetate): 6 to 8 mg/mL
Solubility (mg/mL), 50° C. ([4]; Ethyl acetate): 14 to 20 mg/mL
Solubility (mg/mL), 25° C. ([4]; Heptane): <5 mg/mL
Solubility (mg/mL), 50° C. ([4]; Heptane): <10 mg/mL
Solubility (mg/mL), 25° C. ([4]; MTBE (Methyl tert-butyl ether)): <5 mg/mL
Solubility (mg/mL), 50° C. ([4]; MTBE): <10 mg/mL
Solubility (mg/mL), 25° C. ([4]; Methanol): 8 to 13 mg/mL
Solubility (mg/mL), 50° C. ([4]; Methanol): 18 to 22 mg/mL
Solubility (mg/mL), 25° C. ([4]; Methanol/water (v:v = 95:5)): 8 to 13 mg/mL
Solubility (mg/mL), 50° C. ([4]; Methanol/water (v:v = 95:5)): 14 to 20 mg/mL
Solubility (mg/mL), 25° C. ([4]; THF (Tetrahydrofuran)): >250 mg/mL
Solubility (mg/mL), 50° C. ([4]; THF): >500 mg/mL
Solubility (mg/mL), 25° C. ([4]; Toluene): <5 mg/mL
Solubility (mg/mL), 50° C. ([4]; Toluene): <10 mg/mL
Solubility (mg/mL), 25° C. ([4]; Water): <5 mg/mL
Solubility (mg/mL), 50° C. ([4]; Water): <10 mg/mL
XRPD ([5]; equilibration under a temperature cycle, 1,4-Dioxane/heptane (v:v = 1:1)): +Pattern B
XRPD ([5]; equilibration under a temperature cycle, 2-MeTHF): +Pattern F
XRPD ([5]; equilibration under a temperature cycle, Acetone): +Pattern B
XRPD ([5]; equilibration under a temperature cycle, Acetone/water (v:v = 36:64)): +Pattern K
XRPD ([5]; equilibration under a temperature cycle, Acetone/water (v:v = 76:24)): +Pattern A
XRPD ([5]; equilibration under a temperature cycle, Acetone/water (v:v = 92:8)): +Pattern B
XRPD ([5]; equilibration under a temperature cycle, Acetonitrile): +Pattern B
XRPD ([5]; equilibration under a temperature cycle, DCM/heptane (v:v = 1:1)): +Pattern F
XRPD ([5]; equilibration under a temperature cycle, DMSO/water (v:v = 64:36)): +Pattern F
XRPD ([5]; equilibration under a temperature cycle, Ethanol): +Pattern F
XRPD ([5]; equilibration under a temperature cycle, Ethyl acetate): +Pattern F
XRPD ([5]; equilibration under a temperature cycle, Methanol): +Pattern B
XRPD ([5]; equilibration under a temperature cycle, THF/heptane (v:v = 1:1)): +Pattern F
XRPD ([5]; equilibration under a temperature cycle, Toluene): +Pattern A

COc1cc(-c2cn(C)c(=O)c(C)c2C)cc(OC)c1CN1CC[C@H](N2CCN(c3ccc(N[C@H]4CCC(=O)NC4=O)cc3F)CC2)C(F)(F)C1 [Form A]
physical and chemical stability [6]: physically and chemically stable
behavior under ball milling [7]: no obvious crystallinity decrease
behavior under compression [7]: no form change and no obvious crystallinity decrease even under 10 MPa
water uptake ([8]; from 40% RH to 70% RH): about 2.0%

COc1cc(-c2cn(C)c(=O)c(C)c2C)cc(OC)c1CN1CC[C@H](N2CCN(c3ccc(N[C@H]4CCC(=O)NC4=O)cc3F)CC2)C(F)(F)C1 [Form N]
XRPD ([9]; 0% RH): Pattern N
XRPD ([9]; 20% RH): Pattern N
XRPD ([9]; 40% RH (after 90% RH, falling)): Pattern N
XRPD ([9]; 40% RH (first step)): Pattern N
XRPD ([9]; 40% RH (last step, after 0% RH)): Pattern N
XRPD ([9]; 70% RH (after 90% RH)): Pattern N
XRPD ([9]; 70% RH (humidity rising)): Pattern N
XRPD ([9]; 90% RH): Pattern N
physical and chemical stability [6]: physically and chemically stable
form change and degradation after drying ([6]; 50° C. under vacuum for 2 days): No form change and no degradation
behavior under ball milling [7]: no obvious crystallinity decrease
behavior under compression [7]: crystallinity decrease even compressed under 2 MPa
water uptake ([8]; from 40% RH to 80% RH): about 1.0%
